The source of these data is patent US8110544B2, “RasGAP derived peptide for selectively killing cancer cells” (Universite de Lausanne, priority 2003, dated 2012).

The test system of one experiment is NFκB activity. In words: NFκB firefly luciferase reporter assay in U2OS cells. It is filed as cell-based, human. Conditions: 20 μM peptide or cisplatin, 20 hours. The procedure:
U2OS Cells (1×10^5) were plated in 6 well plates and transfected with 1 μg of a firefly luciferase reporter plasmid for NFκB activity and 0.1 μg of a plasmid encoding the Renilla luciferase. The cells were treated one day later with the indicated concentrations of cisplatin in the absence or in the presence of 20 μM HV-TAT48-57 or TAT-RaSGAP317-326 peptides during 20 hours. The data represent the firefly luciferase activity normalized to the Renilla luciferase activity and expressed as fold increase of the basal NFκB activity obtained in control untreated cells. The results correspond to the mean±standard deviation of three independent determinations. Asterisks denote significant differences between the indicated conditions (**, p<0.01; ***, p<0.001).
U2OS cells were transfected with 1 μg of a firefly luciferase reporter plasmid for NFκB activity, 0.1 μg of a plasmid encoding the Renilla luciferase, 0.5 μg of a GFP-expressing plasmid (to label the transfected cells), 1 μg of a plasmid encoding IκBαΔN2 that inhibit the NFκB pathway or with 1 μg an empty pcDNA3 vector. The cells were incubated one day later with increasing concentrations of cisplatin in the presence of 20 μM HIV-TAT48-57 or 20 μM TAT-RasGAP317-326 for an additional 20 hour period. The cells were then lysed and the NFκB activity assessed as described in panel A, except that the results were expressed as fold increase of the NFκB activity detected in cells incubated with the control HV-TAT48-57 peptide.
Luciferase assay was performed using the Dual-Luciferase® Reporter Assay from Promega (cat. no E1910). […] The firefly luciferase activity was recorded by mixing 20 μl of the lysate with 25 μl of the LARII Reagent and the Renilla luciferase activity was recorded by adding to the previous mix 25 μl of the Stop & Glo Reagent. For each measurement, light emission was quantified during 12 seconds using a Lumat LB 9501 luminometer (Berthold Technologies, Zurich, Switzerland).
On the technique in general: Reporter assays use an easily measured gene product as a stand-in for the process of interest.

In experiment [1] the test system is HeLa cells. In words: Apoptosis (pycnotic nuclei) of HeLa cells transfected with RasGAP constructs and treated with genotoxins. It is filed as cell-based, human. The settings on record: for potentiation of cisplatin-induced apoptosis in HeLa cells: transfected construct, 0.15 μM cisplatin, apoptosis scored 20 hours later. The procedure:
HeLa cells (2×10^6) were plated in 10-cm-diameter Petri dishes, transfected with 1 μg of GFP-expressing plasmid (to label the transfected cells) together with 2 μg of an empty pcDNA3 plasmid or 2 μg of a pcDNA3 vector encoding fragment N2. One day following the transfection, the cells were incubated for 24 hours with the indicated concentrations of cisplatin, adriamycin or mitoxantrone. The number of GFP-positive cells displaying pycnotic nucleus was then scored.
HeLa cells were transfected as described in FIG. 1 with plasmids endoding the constructs described in FIG. 2A. HeLa cells were then treated or not with 0.15 μM cisplatin and the extent of apoptosis was determined 20 hours later. The results correspond to the mean±standard deviation of three independent determinations. Asterisks denote a significant difference between the cells treated with 0.15 μM cisplatin and the cells without treatment (**, p<0.01; ***, p<0.001).
HeLa and MCF-7 cells were maintained in RPMI 1640 (Sigma; cat. no 8758) containing 10% newborn calf serum (Sigma; cat. no N4637) at 37° C. and 5% CO2. U2OS cells were maintained in DMEM (Sigma; cat. no 5796) containing 15% foetal calf serum (Sigma; cat. no F7524) at 37° C. and 5% CO2. H-Meso-1 cells were maintained in RPMN 1640 containing 10% foetal calf serum at 37° C. and 5% CO2. […] After 8 hours at 37° C. and 5% CO2, the medium was replaced with fresh culture medium and the cells were further incubated for 16-24 hours before being analyzed.
Apoptosis was determined by scoring the number of cells displaying pycnotic nuclei. Nuclei of live cells were labeled with Hoechst 33342 (10 μg/ml final concentration) for about 5 minutes and the cells were then analyzed (at least 400 cells per condition) using an inverted Leica DMIRB microscope equipped with fluorescence and transmitted light optics. […] In this case, the extent of apoptosis was assessed in the transfected cells only. […]

For the next experiment, the system named is JNK. In words: Western blot of phospho-JNK in U2OS cells. In kind it is cell-based, human. The settings on record: 20 μM peptide. The procedure:
(§1) U2OS cells (2×10^5) were plated in 6 well plates and treated for the indicated periods of time with the indicated combinations of the HW-TAT48-57 or TAT-RasGAP317-326 peptides (at a 20 μM concentration) and cisplatin (at a 30 μM concentration). Positive controls for JNK and p38 activation were obtained following stimulation of the cells with 1 μg/ml anisomycine during 3 hours and with 0.5 M sorbitol for 30 min, respectively. The quantitations depicted under the Western blots were performed on the 12-hour bands and normalized against the positive controls. The results correspond to the mean±standard deviation of three independent experiments. […]
(In general: Immunoblotting shows a protein as a band on a membrane.)

The test system of the next experiment is p38 MAPKs. As to the kind of experiment: Western blot of phospho-p38 in U2OS cells. In kind it is cell-based, human. The settings on record: 20 μM peptide. Here is the method: as §1
The subject of experiment [2] is HeLa cells. The settings on record: Yang and Widmann 2001; cited from earlier work.

As for `N.N.[Cl][Pt][Cl]` [cisplatin, reference compound], the “NFkB activation in U2OS cells (single agent)” value in the experiment with NFκB activity was “activated”.

For “WMWVTNLRTD (listed as Homo sapiens) [317-326, 10 amino acid long peptide expressed from a transfected construct]”, the “potentiation of cisplatin-induced apoptosis in HeLa cells” value in the experiment with HeLa cells [1] was “potentiated the ability of cisplatin to kill HeLa cells”. Regarding “GRKKRRQRRR [HIV-TAT48-57, reference compound]”, the “activation of JNK pathway by peptide alone” value with JNK is on record as “neither the control HIV-TAT48-57 peptide nor the TAT-RasGAP317-326 peptide activated these MAPK pathways”. Besides, the “activation of p38 MAPK pathway by peptide alone” value in the experiment on p38 MAPKs is recorded as “neither the control HIV-TAT48-57 peptide nor the TAT-RasGAP317-326 peptide activated these MAPK pathways”.

B1: SH2 domain: human RasGAP amino acids 158-277, expressed from plasmid SH2.dn3 (protein, UniProt P20936 158-277, looked up, fragment)
chain: SLDGPEYEEEEVAIPLTAPPTNQWYHGKLDRTIAEERLRQAGKSGSYLIRESDRRPGSFVLSFLSQMNVVNHFRIIAMCGDYYIGGRRFSSLSDLIGYYSHVSCLLKGEKLLYPVAPPEP
modifications: SH2 domain
notes: human RasGAP amino acids 158-277, expressed from plasmid SH2.dn3
Take B1: the “potentiation of cisplatin-induced apoptosis in HeLa cells” value in the experiment with HeLa cells [1] is recorded as “did not enhance the ability of cisplatin to kill HeLa cells”.

B2: fragment N2: human RasGAP amino acids 158 to 455, 36 kDa, expressed from plasmid N2.dn3 (protein, UniProt P20936 158-455, looked up, fragment)
chain: SLDGPEYEEEEVAIPLTAPPTNQWYHGKLDRTIAEERLRQAGKSGSYLIRESDRRPGSFVLSFLSQMNVVNHFRIIAMCGDYYIGGRRFSSLSDLIGYYSHVSCLLKGEKLLYPVAPPEPVEDRRRVRAILPYTKVPDTDEISFLKGDMFIVHNELEDGWMWVTNLRTDEQGLIVEDLVEEVGREEDPHEGKIWFHGKISKQEAYNLLMTVGQVCSFLVRPSDNTPGDYSLYFRTNENIQRFKICPTPNNQFMMGGRYYNSIGDIIDHYRKEQIVEGYYLKEPVPMQDQEQVLNDTVD
As for B2, the “sensitivity of HeLa cells towards the various drugs relative to control cells” value with HeLa cells [1] (HeLa cells expressing fragment N2 vs empty pcDNA3, cisplatin, adriamycin, mitoxantrone, 24 hours) was “at least 10 times”. Moreover, the “ability of cisplatin to kill the HeLa tumor cell line” value in the experiment with HeLa cells [2] was “enhances the ability of cisplatin to kill the HeLa tumor cell line”.
